Data: US12146168B2, “Human CGAS-DNA complex and encoded protein” (priority 2018, dated 2024)
Entries after “also recorded” stand apart in the source; their conditions may differ.

B1: hcGAS K187N/L195R (protein, UniProt Q8N884 1-522, looked up, variant K187N L195R)
Cyclic GMP-AMP synthase: MQPWHGKAMQRASEAGATAPKASARNARGAPMDPTESPAAPEAALPKAGKFGPARKSGSRQKKSAPDTQERPPVRATGARAKKAPQRAQDTQPSDATSAPGAEGLEPPAAREPALSRAGSCRQRGARCSTKPRPPPGPWDVPSPGLPVSAPILVRRDAAPGASKLRAVLEKLKLSRDDISTAAGMVNGVVDHLLRRLKCDSAFRGVGLLNTGSYYEHVKISAPNEFDVMFKLEVPRIQLEEYSNTRAYYFVKFKRNPKENPLSQFLEGEILSASKMLSKFRKIIKEEINDIKDTDVIMKRKRGGSPAVTLLISEKISVDITLALESKSSWPASTQEGLRIQNWLSAKVRKQLRLKPFYLVPKHAKEGNGFQEETWRLSFSHIEKEILNNHGKSKTCCENKEEKCCRKDCLKLMKYLLEQLKERFKDKKHLDKFSSYHVKTAFFHVCTQNPQDSQWDRKDLGLCFDNCVTYFLQCLRTEKLENYFIPEFNLFSSNLIDKRSKEFLTKQIEYERNNEFPVFDEF
B2: L195R (protein, listed as Homo sapiens)
chain: MQPWHGKAMQRASEAGATAPKASARNARGAPMDPTESPAAPEAALPKAGKFGPARKSGSRQKKSAPDTQERPPVRATGARAKKAPQRAQDTQPSDATSAPGAEGLEPPAAREPALSRAGSCRQRGARCSTKPRPPPGPWDVPSPGLPVSAPILVRRDAAPGASKLRAVLEKLKLSRDDISTAAGMVKGVVDHLLRRLKCDSAFRGVGLLNTGSYYEHVKISAPNEFDVMFKLEVPRIQLEEYSNTRAYYFVKFKRNPKENPLSQFLEGEILSASKMLSKFRKIIKEEINDIKDTDVIMKRKRGGSPAVTLLISEKISVDITLALESKSSWPASTQEGLRIQNWLSAKVRKQLRLKPFYLVPKHAKEGNGFQEETWRLSFSHIEKEILNNHGKSKTCCENKEEKCCRKDCLKLMKYLLEQLKERFKDKKHLDKFSSYHVKTAFFHVCTQNPQDSQWDRKDLGLCFDNCVTYFLQCLRTEKLENYFIPEFNLFSSNLIDKRSKEFLTKQIEYERNNEFPVFDEF
B3: K187N (protein, listed as Homo sapiens)
chain: MQPWHGKAMQRASEAGATAPKASARNARGAPMDPTESPAAPEAALPKAGKFGPARKSGSRQKKSAPDTQERPPVRATGARAKKAPQRAQDTQPSDATSAPGAEGLEPPAAREPALSRAGSCRQRGARCSTKPRPPPGPWDVPSPGLPVSAPILVRRDAAPGASKLRAVLEKLKLSRDDISTAAGMVNGVVDHLLLRLKCDSAFRGVGLLNTGSYYEHVKISAPNEFDVMFKLEVPRIQLEEYSNTRAYYFVKFKRNPKENPLSQFLEGEILSASKMLSKFRKIIKEEINDIKDTDVIMKRKRGGSPAVTLLISEKISVDITLALESKSSWPASTQEGLRIQNWLSAKVRKQLRLKPFYLVPKHAKEGNGFQEETWRLSFSHIEKEILNNHGKSKTCCENKEEKCCRKDCLKLMKYLLEQLKERFKDKKHLDKFSSYHVKTAFFHVCTQNPQDSQWDRKDLGLCFDNCVTYFLQCLRTEKLENYFIPEFNLFSSNLIDKRSKEFLTKQIEYERNNEFPVFDEF

Columns and labels:
V. cholerae = V. cholerae chemotaxis assay (overexpressed cGAMP synthases); format: cell-based, Vibrio cholerae; settings: overexpression as MBP N-terminal fusion, arabinose induced
Procedure: V. cholerae strains were cultured at 37° C. on LB media (1% tryptone, 0.5% yeast extract, 0.5% NaCl w/v), stored at −80° C. in LB supplemented with 30% glycerol, and were all derivatives of streptomycin resistant C6706 dncV: Tn (to remove endogenous 3′3′ cGAMP synthesis) (Davies et al. (2012) Cell 149:358-370). Where appropriate, antibiotics and supplemented nutrients were used at the following concentrations: streptomycin (100 μg ml^−1), carbenicillin (100 μg ml^−1), and diaminopimelic acid (300 μg ml^−1). hcGAS (D157-F522) and mcGAS (P147-L507) were codon optimized for bacterial expression (Genscript and IDT respectively), and all cGAS enzymes and control genes were overexpressed from a custom plasmid pBAD24T, a conjugation-proficient version of pBAD24 that harbors an arabinose inducible promoter and a strong ribosomal binding site (Guzman et al. (1995) J Bacteriol 177:4121-4130) that was further modified to include a new multiple cloning site. All genes overexpressed in V. cholera were encoded as MBP N-terminal fusions except the MBP alone negative control vector (Table 5).
[…]. V. cholerae chemotaxis assays were performed as previously described (Davies et al. (2012) Cell 149:358-370). Briefly, chemotaxis medium (1% tryptone, 0.5% NaCl, 0.3% agar w/v) was prepared, autoclaved, and stored at 2x concentration; and chemotaxis plates were prepared 2-24 h prior to inoculation. 2x medium was melted, diluted to 1× with sterile water, and supplemented with 0.2% (w/v) arabinose. Deep-well plates (OmniTray w/Lid, Thermo Fisher) were poured at 40 ml/plate. Overnight, stationary phase cultures (16-24 h post inoculation) were diluted 10-fold with fresh LB, arrayed in a 96-well plate, then applied to the surface of a chemotaxis plate via pinning with a 96-pin, floating pin replicator (VP 408FH, V&P Scientific). Alternatively, 1 μl of diluted culture was applied to the surface of chemotaxis agar by pipetting. Chemotaxis plates were incubated at 30° C. for 16-24 h.
Chemotaxis was quantified by imaging plates at 16-24 h post inoculation and digitally measuring the area of motile bacteria using ImageJ (Schneider et al. (2012) Nat Methods 9:671-675). Chemotaxis area was normalized to MBP alone vector for each experiment for expression of “chemotaxis as a % of MBP”. Values were transformed into “chemotaxis repression” by calculating (chemotaxis as a % of MBP)-1, then normalizing this value to dncV. Chemotaxis repression was determined and used to simplify a direct relationship between cGAMP levels and plotted values.

17 bp DNA = assay: In vitro cGAS 2′3′ cGAMP synthesis assay, DNA length specificity; format: biochemical
Procedure: […]. Briefly, 1 μM cGAS ([…], SEQ ID NO: 6; antisense: 5′-[…]-3′, SEQ ID NO: 7) (Stetson and Medzhitov (2006) Immunity 24:93-103) in the 20 μl reaction buffer containing 50 mM Tris-HCl pH 7.5, 35 mM KCl, 5 mM Mg(OAc)2, 1 mM DTT, 25 μM ATP, 25 μM GTP, and [α-^32P] ATP (˜1 μCi) at 37° C. for 30 min. Reactions were terminated by heating at 95° C. for 3 min, and subsequently incubated with 4 U of alkaline phosphatase (New England Biolabs) at 37° C. for 30 min to hydrolyze unreacted NTPs. One microliter of each reaction was spotted on a PEI-Cellulose F thin-layer chromatography plate (EMD Biosciences) developed with 1.5 M KH2PO4 (pH 3.8) as a running buffer. Radiolabeled products were detected by Typhoon Trio Variable Mode Imager system (GE Healthcare) and quantified with ImageQuant 5.2. […]. Briefly, ATP/GTP titrations (0, 5, 10, 25, 50, 100, 200, 400, 800, and 1000 μM) were performed in the presence of fixed cGAS (1 μM) and 45 bp dsDNA concentration (1.5 μM) in 10 μl of reaction buffer containing 50 mM Tris-HCl pH 7.5, 35 mM KCl, 5 mM Mg(OAc)2, 1 mM DTT, and [α-^32P] ATP (˜1 μCi) at 37° C. for 5 min. Reactions were terminated and analyzed using thin layer chromatography as indicated above. The ATP-dependent cGAS enzyme kinetics were plotted and fitted according to Michaelis-Menten substrate inhibition analysis in GraphPad Prism (version 7.0c).

45 bp dsDNA = assay: In vitro cGAS-DNA complex formation, electrophoretic mobility shift analysis; format: binding; settings: 45 bp DNA, gradient dialysis
Procedure: cGAS-DNA complexes were stably assembled using a method adapted from a nucleosome assembly gradient dialysis protocol (Lee and Narlikar (2001) Current protocols in molecular biology Chapter 21, Unit 21.26), and complex formation was measured by electrophoretic mobility shift analysis. Briefly, a concentration gradient of recombinant protein (0.2, 0.4, 2, 10 μM) was incubated with 45 bp dsDNA (2 μM) in a high-salt buffer containing 20 mM HEPES-NaOH pH 7.8, […], 1 mM DTT at 4° C. for 20 min. The reconstitution mixture was then transferred into 8-10 kDa molecular weight cut-off dialysis tubing (Spectrum Labs), and placed into a beaker of the high-salt buffer. The KCl concentration was reduced gradually by slowly replacing high-salt buffer with low-salt buffer (20 mM HEPES-KOH pH 7.5, 50 mM KCl, 1 mM DTT) with a peristaltic pump (Bio-Rad) at a rate of […] for 48 hr at 4° C. After gradient dialysis, reactions were supplemented to 5% glycerol, and subsequently separated on a 2% agarose gel in 0.5×TBE buffer at 4° C. Agarose gels were stained in a solution containing 10 μg ml^−1 ethidium bromide and visualized with a ChemiDoc™ MP Imaging System (Bio-Rad). Alternatively, where indicated in FIGS. 8A and 8C, cGAS-DNA complexes were assembled by incubating directly in reaction buffer containing 20 mM HEPES-NaOH pH 7.8, […], 1 mM DTT at 4° C. for 20 min and analyzed by electrophoretic mobility shift analysis as indicated above.

[1] = tested on: 45 bp double-stranded interferon stimulatory DNA; assay: In vitro cGAS 2′3′ cGAMP synthesis assay; format: biochemical; settings: for 2′3′ cGAMP synthesis: 45 bp DNA
Procedure: […]. Briefly, 1 μM cGAS (or other concentration as indicated) was incubated with a 45 bp double-stranded interferon stimulatory DNA (sense: 5′-[…]-3′, SEQ ID NO: 6; antisense: 5′-[…]-3′, SEQ ID NO: 7) (Stetson and Medzhitov (2006) Immunity 24:93-103) in the 20 μl reaction buffer containing 50 mM Tris-HCl pH 7.5, 35 mM KCl, 5 mM Mg(OAc)2, 1 mM DTT, 25 μM ATP, 25 μM GTP, and [α-^32P] ATP (˜1 μCi) at 37° C. for 30 min. Reactions were terminated by heating at 95° C. for 3 min, and subsequently incubated with 4 U of alkaline phosphatase (New England Biolabs) at 37° C. for 30 min to hydrolyze unreacted NTPs. One microliter of each reaction was spotted on a PEI-Cellulose F thin-layer chromatography plate (EMD Biosciences) developed with 1.5 M KH2PO4 (pH 3.8) as a running buffer. Radiolabeled products were detected by Typhoon Trio Variable Mode Imager system (GE Healthcare) and quantified with ImageQuant 5.2. […]. Briefly, ATP/GTP titrations (0, 5, 10, 25, 50, 100, 200, 400, 800, and 1000 μM) were performed in the presence of fixed cGAS (1 μM) and 45 bp dsDNA concentration (1.5 μM) in 10 μl of reaction buffer containing 50 mM Tris-HCl pH 7.5, 35 mM KCl, 5 mM Mg(OAc)2, 1 mM DTT, and [α-^32P] ATP (˜1 μCi) at 37° C. for 5 min. Reactions were terminated and analyzed using thin layer chromatography as indicated above. The ATP-dependent cGAS enzyme kinetics were plotted and fitted according to Michaelis-Menten substrate inhibition analysis in GraphPad Prism (version 7.0c).

V. cholerae genomic DNA = assay: In vitro cGAS 2′3′ cGAMP synthesis assay with bacterial genomic DNA; format: biochemical, Vibrio cholerae; settings: purified V. cholerae genomic DNA

| Molecule | V. cholerae chemotaxis repression (V. cholerae) | 2′3′ cGAMP synthesis / enzyme activation in response to short DNA (17 bp DNA) | higher-order cGAS-DNA complex formation (45 bp dsDNA) | lower molecular weight minimal cGAS-DNA complex formation (45 bp dsDNA) | other results |
| --- | --- | --- | --- | --- | --- |
| dncV | inhibited chemotaxis |  |  |  |  |
| hcGAS | no loss of chemotaxis | remained inactive | preferentially formed higher-order oligomeric complexes |  | enhanced 2′3′ cGAMP synthesis versus wild type hcGAS [1]: > 15 fold; 2′3′ cGAMP synthesis ([1]; listed as hcGAS*): activity comparable to wildtype mcGAS; catalytic efficiency of 2′3′ cGAMP synthesis, fold less efficient than mcGAS ([1]; varying ATP concentration, Michaelis-Menten with substrate inhibition): ~20 fold |
| mcGAS | potently arrested chemotaxis | recognized both 45 bp and 17 bp DNA with near equal efficiency |  | formed two types of DNA complexes | 2′3′ cGAMP synthesis in response to bacterial genomic DNA (V. cholerae genomic DNA): produces more 2′3′ cGAMP than hcGAS |
| B1 | potently inhibited V. cholerae chemotaxis | full enzyme activation | unaffected | restored the ability of hcGAS to form a stable lower molecular weight protein-DNA complex | 2′3′ cGAMP synthesis [1]: elevated 2′3′ cGAMP synthesis; also recorded: dramatically enhanced 2′3′ cGAMP synthesis; enzyme kinetics of 2′3′ cGAMP synthesis ([1]; varying ATP concentration, compared to mcGAS): nearly equal to mcGAS |
| B2 | Neither K187N nor L195R alone was sufficient to enhance hcGAS activity |  |  |  |  |
| B3 | Neither K187N nor L195R alone was sufficient to enhance hcGAS activity |  |  |  |  |
